Results from patent US10604512B2, “3-(1H-indol-2-yl)-1H-indazoles and therapeutic uses thereof” (Samumed, LLC, priority 2015, dated 2020).

Columns and labels:
[1] = tested on: SW480 colon cancer cells; assay: Cell viability assay (CellTiter-Blue) in SW480 colon cancer cells; type: cell-based; details: Homo sapiens, 96 h, four days; for inhibition at 10 µM: given where EC50 >10 μM, read-out: percent inhibition at 10 μM; for EC50: CellTiter-Blue
Outline: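 4-day exposure, 37 °C/5% CO2; ~2×10^3 SW480 cells/well; 8-pt 1:3 curve, 10–0.0045 μM, duplicates vs DMSO controls. Resazurin→resorufin fluorescence readout, ~3 h. EC50 by nonlinear fit; if >10 μM, % inhibition at 10 μM reported.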

[2] = tested on: Primary human fibroblasts derived from IPF patients (LL29 cells) treated with TGF-β1; assay: Inhibition of the fibrotic process: αSMA staining in TGF-β1-treated primary human fibroblasts from IPF patients (LL29 cells); type: cell-based; details: Fibroblast, 96 h; for EC50: % αSMA-positive LL29 cells, TGF-β1 20 ng/mL, 4 days; for inhibition at 10 µM: given where EC50 >10 μM, αSMA, LL29 cells, TGF-β1, 4 days, read-out: percent inhibition at 10 μM
Outline: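 LL29 IPF-patient fibroblasts in 1% FBS stimulated with TGF-β1 (20 ng/mL) and compound (10 μM–1.87 nM, 0.1% DMSO) for 4 days at 37 °C. SYTOX-positive cells excluded; % αSMA-positive cells imaged, normalized to TGF-β1/DMSO wells; EC50 by nonlinear regression, else % inhibition at 10 μM.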

Question: What does the source list for O=C(Nc1cncc(-c2ccc3[nH]nc(-c4cc5ccccc5[nH]4)c3c2)c1)C1CCC1 [Compound 273, N-(5-(3-(1H-Indol-2-yl)-1H-indazol-5-yl)pyridin-3-yl) cyclobutanecarboxamide]?
Answer: inhibition at 10 µM [1]: 17.8%; EC50 [1]: > 10 µM; EC50 [2]: > 10 µM; inhibition at 10 µM [2]: 3.5%

Question: How did the inhibition at 10 µM [1] turn out when O=C(Nc1cncc(-c2ccc3[nH]nc(-c4cc5ccccc5[nH]4)c3c2)c1)C1CCCCC1 [Compound 275, N-(5-(3-(1H-Indol-2-yl)-1H-indazol-5-yl)pyridin-3-yl) cyclohexanecarboxamide] was run?
Answer: Its inhibition at 10 µM is 9.5%.

Question: And the EC50 [1]?
Answer: Its EC50 is > 10 µM.

Question: And the EC50 [2]?
Answer: Its EC50 is > 10 µM.

Question: What about the inhibition at 10 µM [2] of the same molecule?
Answer: The inhibition at 10 µM was 43.7%.

Question: How did the EC50 [1] turn out when CC(C)CC(=O)Nc1cncc(-c2ccc3[nH]nc(-c4cc5c(-c6ccsc6)cccc5[nH]4)c3c2)c1 [Compound 282, 3-Methyl-N-(5-(3-(4-(thiophen-3-yl)-1H-indol-2-yl)-1H-indazol-5-yl)pyridin-3-yl)butanamide] was run?
Answer: Its EC50 is 0.18 µM.

Question: And the EC50 [2]?
Answer: The EC50 was > 10 µM.

Question: And the inhibition at 10 µM [2]?
Answer: Its inhibition at 10 µM is 34.9%.

Question: Which EC50 [1] does the source give for CC(C)C(=O)Nc1cncc(-c2ccc3[nH]nc(-c4cc5c(-c6ccsc6)cccc5[nH]4)c3c2)c1 [Compound 289, N-(5-(3-(4-(Thiophen-3-yl)-1H-indol-2-yl)-1H-indazol-5-yl)pyridin-3-yl) isobutyramide] here?
Answer: The EC50 was 0.375 µM.

Question: What about the EC50 [2] of the same molecule?
Answer: The EC50 was 8.4 µM.

Question: What does the source list for c1ccc(-c2ccc3[nH]nc(-c4cc5c(-c6ccoc6)cccc5[nH]4)c3c2)nc1 [Compound 336, 3-(4-(Furan-3-yl)-1H-indol-2-yl)-5-(pyridin-2-yl)-1H-indazole]?
Answer: EC50 [1]: 3.1 µM; EC50 [2]: > 10 µM; inhibition at 10 µM [2]: 0%

Question: What does the source list for c1cncc(-c2ccc3[nH]nc(-c4cc5c(-c6cccs6)cccc5[nH]4)c3c2)c1 [Compound 340, 5-(Pyridin-3-yl)-3-(4-(thiophen-2-yl)-1H-indol-2-yl)-1H-indazole]?
Answer: EC50 [1]: 0.371 µM; EC50 [2]: > 10 µM; inhibition at 10 µM [2]: 38.3%

Question: CN(C)Cc1cncc(-c2ccc3[nH]nc(-c4cc5c(-c6cccs6)cccc5[nH]4)c3c2)c1 [Compound 349, N,N-Dimethyl-1-(5-(3-(4-(thiophen-2-yl)-1H-indol-2-yl)-1H-indazol-5-yl)pyridin-3-yl)methanamine] was tested. Which EC50 [1] did it give?
Answer: The EC50 was 0.841 µM.

Question: What about the EC50 [2] of the same molecule?
Answer: Its EC50 is 1.15 µM.

Question: Which results are given for c1csc(-c2cccc3[nH]c(-c4n[nH]c5ccc(-c6ccncc6)cc45)cc23)c1 [Compound 354, 5-(pyridin-4-yl)-3-(4-(thiophen-2-yl)-1H-indol-2-yl)-1H-indazole]?
Answer: EC50 [1]: 8.93 µM; EC50 [2]: > 10 µM; inhibition at 10 µM [2]: 0%

Question: With CC(C)(C)C(=O)Nc1cncc(-c2ccc3[nH]nc(-c4cc5c(-c6cc(F)cc(CNS(C)(=O)=O)c6)cccc5[nH]4)c3c2)c1 [Compound 484, N-(5-(3-(4-(3-Fluoro-5-(methylsulfonamidomethyl)phenyl)-1H-indol-2-yl)-1H-indazol-5-yl)pyridin-3-yl)pivalamide] as the molecule, how does the inhibition at 10 µM [1] read?
Answer: The inhibition at 10 µM was 37.5%.

Question: And the EC50 [1]?
Answer: The EC50 was > 10 µM.

Question: What about the EC50 [2] of the same molecule?
Answer: The EC50 was > 10 µM.

Question: And the inhibition at 10 µM [2]?
Answer: The inhibition at 10 µM was 25.5%.

Question: CS(=O)(=O)NCc1cc(F)cc(-c2cccc3[nH]c(-c4n[nH]c5ccc(-c6ccncc6)cc45)cc23)c1 [Compound 494, N-(3-Fluoro-5-(2-(5-(pyridin-4-yl)-1H-indazol-3-yl)-1H-indol-4-yl)benzyl) methane sulfonamide] was tested. Which inhibition at 10 µM [1] did it give?
Answer: The inhibition at 10 µM was 22.3%.

Question: What about the EC50 [1] of the same molecule?
Answer: The EC50 was > 10 µM.

Question: What about the EC50 [2] of the same molecule?
Answer: Its EC50 is > 10 µM.

Question: And the inhibition at 10 µM [2]?
Answer: Its inhibition at 10 µM is 10.4%.

Question: CS(=O)(=O)NCc1cc(F)cc(-c2cccc3[nH]c(-c4n[nH]c5ccc(-c6cncnc6)cc45)cc23)c1 [Compound 503, N-(3-Fluoro-5-(2-(5-(pyrimidin-5-yl)-1H-indazol-3-yl)-1H-indol-4-yl)benzyl) methanesulfonamide] was tested. Which EC50 [1] did it give?
Answer: The EC50 was 3.17 µM.

Question: And the EC50 [2]?
Answer: Its EC50 is 0.311 µM.

Question: Which results are given for CC(C)CC(=O)Nc1cncc(-c2ccc3[nH]nc(-c4cc5ncccc5[nH]4)c3c2)c1 [Compound 506, N-(5-(3-(1H-Pyrrolo[3,2-b]pyridin-2-yl)-1H-indazol-5-yl)pyridin-3-yl)-3-methylbutanamide]?
Answer: EC50 [1]: 0.486 µM; EC50 [2]: > 10 µM; inhibition at 10 µM [2]: 24.2%
